From patent US6169084A, “2-methyl-thieno-benzodiazepine formulation” (Eli Lilly and Company, priority 1998, dated 2001)

Key:
[1] = Discoloration of olanzapine in contact with excipients; type: physicochemical; conditions: contacted with certain excipients including powder blends; exacerbated by ambient air, elevated temperatures, moist environments
[2] = dogs, male vs female; cited from earlier work

Cc1cc2c(s1)Nc1ccccc1N=C2N1CCN(C)CC1 [olanzapine, 2-methyl-4-(4-methyl-1-piperazinyl)-10H-thieno[2,3-b][1,5]benzodiazepine]
discoloration (stability) [1]: undergoes undesirable discoloration
difference in the pharmacokinetic of olanzapine between the sexes [2]: no difference
